{"source": "patent US6497862B2", "about": "“Composition for inhibiting body odor and uses thereof” (Kabushiki Kaisha Hayashibara, priority 2000, dated 2002)", "key": {"healthy volunteer": {"tested_on": "healthy volunteer", "assay": "Test on volunteer: volatile aldehydes collected from worn underwear (Experiment 7)", "format": "in vivo, human", "experimental": "The influence of saccharides on the formation of body odor from living bodies by applying trehalose to a healthy volunteer, under the following schedule: After soaking a towel in a 2% (w/w) aqueous trehalose solution, which had been boiled for five minutes and then cooled to about 40° C., at 10:30 a.m. on the day of starting a test, the volunteer as in a test system was allowed to wipe their whole body with the towel squeezed roughly to apply trehalose on the body surface, and made them to spend their daily life as usual after the drying of the applied aqueous trehalose solution. Thereafter, they were made to take a bath at 9 p.m. as usual and allowed to sufficiently wash their whole body including their hair. Just after bathing, a fresh preparation of aqueous trehalose solution was applied on the body surface similarly as above, then after drying the aqueous trehalose solution, they were made to wear an underwear and allowed to spend their daily life. At 5:30 p.m. on the next day after the initiation of the test, their worn underwear was collected, and tested for the presence and the content of volatile aldehydes in the underwear by the following procedures. As a control, on other day, the volunteer was allowed to wear a similar underwear as used in the test system according to the above test system except for replacing the aqueous trehalose solution with water, and then made them to spend their daily life, followed by collecting their underwear and analyzing them by the following procedures similarly as above.\nAs shown schematically in FIG. 1, an underwear 5 worn by the volunteer in each system was sealed after placed in a sealing vessel 1 immediately after the collection, and the gas in the sealing vessel 1 was pumped by an air pump 3 into a cartridge 4, “Superclean LpDNPH Cartridge”, with a lot No. LpDNPH S10L commercialized by Supelco Inc., Tokyo, Japan, to collect volatile aldehydes through a pipe 2 at ambient temperature of about 20° C., while the gas was continuously circulated through the sealed vessel 1 through the pipe 2 for one hour to collect in the cartridge 4 volatile aldehydes, as DNPH (dinitrophenylhydrazine), contained in the underwear 5. Thereafter, the cartridge 4 was removed and received two milliliters of acetonitrile by passing therethrough, followed by collecting an eluate from the cartridge 4. The collected eluate was analyzed on GC as follows.\n“GAS CHROMATOGRAPH GC-14B”, as a GC apparatus produced by Shimadzu Corporation, Tokyo, Japan; and “TC-Wax CAPILLARY COLUMN”, a column for analysis, having 0.53 mm in inner diameter, 25 m in length, and 0.5 μm in thickness, produced by GL Sciences, Inc., Tokyo, Japan, were used. Helium gas was used as a carrier gas at a flow rate of 1 ml/min, and the temperature for a sample injection part was set to 240° C., while keeping a column thermostatic bath temperature at 50° C. for five minutes and then increasing the temperature up to 200° C. at a rate of 5° C./min. Using two microliters of an analysis sample as an injection volume, 1/30 volume of the injected sample was analyzed (split 1:30) by passing through the column for analysis while controlling the flow rate of the carrier gas at the sample injection part and using a hydrogen flame ionization detector for detection. As standard specimens, DNPH derivatives for each 2-nonenal, 2-octenal, hexanal, and nonanal were used and separately analyzed on GC under the conditions shown above. Based on the gas chromatograms from the above analyses, the content (μg) of respective 2-nonenal, 2-octenal. hexanal, and nonanal, collected form the underwears in the test system and control, was determined."}, "[1]": {"assay": "Panel test of body-odor-like smell (KAREI-SHU), 9-hexadecanoic acid heated (Experiment 3)", "design": "key: +++: the same or higher level of odor; ++: slightly lower level of odor; +: clearly lower level of odor than that of the control system", "conditions": "compared with control system", "text": "Upon the HSG samples, the level of a body-odor-like smell was examined on a panel test consisting of six professional panels; the panels directly smelled the samples from each glass vial and judged the level of the smells for each samples with test saccharides based on the following four ranks, i.e., the same or higher level of odor (+++), slightly lower level of odor (++), clearly lower level of odor (+), and odorless (−) as compared with the control system. Summing up the data from the panels, the samples tested were totally evaluated.\nThe content of 2-nonenal in HSG was measured by GC similarly as in Experiment 1 except that 9-hexadecanoic acid or palmitoleic acid was used as a fatty acid and 2-nonenal, a volatile aldehyde, was used as a standard substance. The level of body-odor-like smell, particularly with respect to KAREI-SHU, in each sample was evaluated by panel test in accordance with the method in Experiment 1."}}, "data": [{"smiles": "OC[C@@H](O)[C@@H](O[C@H]1O[C@H](CO)[C@@H](O)[C@H](O)[C@H]1O)[C@H](O)[C@@H](O)CO", "note": "[Maltitol, maltitol]", "values": [{"measurement": "formation of body odor", "setting": "healthy volunteer; experiment using maltitol in place of trehalose", "value": "well inhibits the formation of body odor similarly as trehalose"}]}, {"smiles": "OC[C@H]1O[C@H](O[C@H]2O[C@H](CO)[C@@H](O)[C@H](O)[C@H]2O)[C@H](O)[C@@H](O)[C@@H]1O", "note": "[Trehalose, trehalose]", "values": [{"measurement": "Content of volatile aldehydes collected from underwear, 2-Nonenal", "setting": "healthy volunteer; 2% (w/w) aqueous trehalose solution applied on the body surface, control 7.05", "value": 3.72, "unit": "µg"}, {"measurement": "Content of volatile aldehydes collected from underwear, Hexanal", "setting": "healthy volunteer; 2% (w/w) aqueous trehalose solution on the body surface, control 5.39, * means no detection", "value": "undetectable level"}, {"measurement": "Content of volatile aldehydes collected from underwear, 2-Octenal", "setting": "healthy volunteer; 2% (w/w) aqueous trehalose solution on the body surface, control 8.61, * means no detection", "value": "undetectable level"}, {"measurement": "Content of volatile aldehydes collected from underwear, Nonanal", "setting": "healthy volunteer; 2% (w/w) aqueous trehalose solution on the body surface, control 10.93, * means no detection", "value": "undetectable level"}, {"measurement": "2-nonenal in underwear, level relative to control", "setting": "healthy volunteer; trehalose applied on the body surface versus water control", "value": "about 53%"}]}, {"smiles": "OC[C@H]1O[C@@](CO)(O[C@H]2O[C@H](CO)[C@@H](O)[C@H](O)[C@H]2O)[C@@H](O)[C@@H]1O", "note": "[Sucrose, sucrose]", "values": [{"measurement": "Evaluation of panel test", "setting": "[1]", "value": "+++"}]}]}
